Experimental data taken from patent US20230391786A1, “cGAS INHIBITORS” (Eli Lilly and Company, priority 2022, published 2023).

Columns and labels:
recombinant human cGAS = recombinant human cGAS (Homo sapiens (Human), UniProt Q8N884); test: In vitro inhibition assay of cGAS activity (cGAMP production, RapidFire mass spectrometry); assay type: biochemical; details: 10 nM recombinant human cGAS, 60 nM 75-bp dsDNA, ATP, GTP, room temperature 3 hours, read-out: IC50 (μM), In vitro inhibition assay for Compounds 95-348
Outline: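 Product cGAMP was quantified by RapidFire MS against a difluoro-cGAMP internal standard after a formic acid quench. The reaction contained 10 nM recombinant full-length human cGAS, 75-bp dsDNA (60 nM), ATP and GTP (50 μM) and ran for 3 h at room temperature. IC50 values came from 4-parameter nonlinear regression.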

[1] = test system: cGAS activity in THP1 cells (IFNb as marker); test: Cellular assay to measure cGAS activity (IFNb production in PMA-differentiated THP1 cells stimulated by RDG-Adenovirus-GFP); assay type: cell-based, human; details: Homo sapiens, THP-1, THP1 cells, PMA differentiated, RDG-Adenovirus-GFP 1000 MOI, IFNb AlphaLISA, overnight incubation; read-out: IC50 (μM), Cellular assay for Compounds 95-348
Outline: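 The readout is secreted IFNb measured by AlphaLISA after overnight compound exposure. THP1 cells, differentiated with PMA for 24 h and rested overnight, were infected with RDG-Adenovirus-GFP (1000 MOI, 4 h) before compounds were added; IC50 came from a 4-parameter logistic fit of inhibition against log concentration.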

recombinant human cGAS, sequence (Q8N884 whole entry): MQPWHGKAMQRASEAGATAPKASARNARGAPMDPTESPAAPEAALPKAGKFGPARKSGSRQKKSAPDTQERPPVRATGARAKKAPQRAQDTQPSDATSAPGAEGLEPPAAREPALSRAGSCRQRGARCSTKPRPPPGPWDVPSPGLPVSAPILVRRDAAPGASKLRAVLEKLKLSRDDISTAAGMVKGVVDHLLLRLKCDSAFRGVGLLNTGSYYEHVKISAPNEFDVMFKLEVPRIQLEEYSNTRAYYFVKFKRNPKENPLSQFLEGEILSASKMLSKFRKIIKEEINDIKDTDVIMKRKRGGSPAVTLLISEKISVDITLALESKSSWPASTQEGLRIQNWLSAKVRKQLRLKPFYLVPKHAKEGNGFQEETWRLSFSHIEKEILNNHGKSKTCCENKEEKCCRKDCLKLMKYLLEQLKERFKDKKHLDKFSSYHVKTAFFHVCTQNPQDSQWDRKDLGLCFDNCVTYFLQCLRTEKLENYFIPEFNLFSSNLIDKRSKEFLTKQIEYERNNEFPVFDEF

Question: For `CCOc1cc(Cl)c(Cl)c2c1c(-c1cn[nH]c1)c1n2CC[C@@H]1NC(=O)CO` [Example 343, (S)—N-(5,6-Dichloro-8-ethoxy-9-(1H-pyrazol-4-yl)-2,3-dihydro-1H-pyrrolo[1,2-a]indol-1-yl)-2-hydroxyacetamide], which IC50 (recombinant human cGAS) is on record?
Answer: 0.00614 µM

Question: And the IC50 [1]?
Answer: 0.565 µM

Question: How did the IC50 (recombinant human cGAS) turn out when `N#CCOc1cc(Cl)c(Cl)c2c1c(-c1cn[nH]c1)c1n2CC[C@@H]1NC(=O)CO` [Example 344, (S)—N-(5,6-Dichloro-8-(cyanomethoxy)-9-(1H-pyrazol-4-yl)-2,3-dihydro-1H-pyrrolo[1,2-a]indol-1-yl)-2-hydroxyacetamide] was run?
Answer: 0.00338 µM

Question: What about the IC50 [1] of the same molecule?
Answer: 0.902 µM

Question: How did the IC50 (recombinant human cGAS) turn out when `N#CCOc1cc(Cl)c(Cl)c2c1c(-c1cn[nH]c1)c1n2CCC1CO` (centres unmarked) [Example 347, 2-((5,6-Dichloro-1-(hydroxymethyl)-9-(1H-pyrazol-4-yl)-2,3-dihydro-1H-pyrrolo[1,2-a]indol-8-yl)oxy)acetonitrile] was run?
Answer: 0.0122 µM

Question: And the IC50 [1]?
Answer: 0.865 µM

Question: Which IC50 (recombinant human cGAS) does the source give for `OCCCOc1cc(Cl)c(Cl)c2c1c(-c1cn[nH]c1)c1n2CC(O)CC1` (centres unmarked) [Example 348, 3,4-Dichloro-1-(3-hydroxypropoxy)-10-(1H-pyrazol-4-yl)-6,7,8,9-tetrahydropyrido[1,2-a]indol-7-ol] here?
Answer: 0.00695 µM

Question: What about the IC50 [1] of the same molecule?
Answer: 0.365 µM
